Data as given in ChEMBL document CHEMBL5584212, “Characterization of the G-quadruplexes in the transthyretin gene and its role in silencing transthyretin mRNA transcription” (Bioorg Med Chem Lett, 2024).
Active and inactive are the calls of the source. The calls are words filed in the database; no cut-off is given here.

Tests used:
Quadruplex DNA [1] = assay: Stabilization of TTRG3 G-quadruplex (unknown origin) assessed as melting temperature in presence of K+ by circular dichroism analysis; type: nucleic-acid assay
Quadruplex DNA [2] = assay: Stabilization of TTRG3 G-quadruplex (unknown origin) assessed as change in melting temperature in presence of K+ by circular dichroism analysis; type: nucleic-acid assay
Quadruplex DNA [3] = assay: Binding affinity to parallel TTRG1 G-quadruplex (unknown origin) assessed as formation of anti-parallel G-quadruplex formation in presence of 1 mM K+ by circular dichroism spectra analysis; type: nucleic-acid assay
Quadruplex DNA [4] = assay: Binding affinity to parallel TTRG1 G-quadruplex (unknown origin) assessed as formation of anti-parallel G-quadruplex formation in presence of 100 mM K+ by circular dichroism spectra analysis; type: nucleic-acid assay
Quadruplex DNA [5] = assay: Binding affinity to parallel TTRG3 G-quadruplex (unknown origin) assessed as formation of anti-parallel G-quadruplex formation in presence of 100 mM K+ by circular dichroism spectra analysis; type: nucleic-acid assay
Quadruplex DNA [6] = assay: Stabilization of parallel TTRG3 G-quadruplex (unknown origin) by CD spectra analysis; type: nucleic-acid assay
Quadruplex DNA [7] = assay: Binding affinity to TTRG3 G-quadruplex (unknown origin) assessed as increase in fluorescence by measuring red shift at 1 uM by UV-Visible spectrophotometric analysis; type: nucleic-acid assay
Quadruplex DNA [8] = assay: Binding affinity to TTRG3 G-quadruplex (unknown origin) assessed as hyperchromic shift by measuring increase in absorbance intensity at 1 uM by UV-Visible spectrophotometric analysis; type: nucleic-acid assay
Quadruplex DNA [9] = assay: Binding affinity to TTRG3 G-quadruplex (unknown origin) assessed as increase in fluorescence intensity at 2 uM by fluorescence titration spectra analysis; type: nucleic-acid assay
HepG2 [10] = assay: Cytotoxicity against human HepG2 cells at 50 uM by CCK-8 assay relative to control; type: toxicity, cell-based; settings: hepg2, 50 µM
HepG2 [11] = assay: Induction of apoptosis in human HepG2 cells at 20 uM incubated for 48 hrs by calcein-AM/PI staining based analysis; type: functional, cell-based
HepG2 [12] = assay: Downregulation of TTR mRNA expression in human HepG2 cells by RT-PCR analysis; type: functional, cell-based
Quadruplex DNA [13] = assay: Binding affinity to TTRG3 G-quadruplex (unknown origin) assessed as dissociation constant by fluorescence spectroscopy; type: nucleic-acid assay

| SMILES | Tm (Quadruplex DNA [1]) [°C] | ΔTm (Quadruplex DNA [2]) [°C] | Activity (Quadruplex DNA [3]) | Activity (Quadruplex DNA [4]) | Activity (Quadruplex DNA [5]) | Activity (Quadruplex DNA [6]) | Activity (Quadruplex DNA [7]) | Activity (Quadruplex DNA [8]) | Activity (Quadruplex DNA [9]) | Activity (HepG2 [10]) [%] | Activity (HepG2 [11]) | Activity (HepG2 [12]) | Kd (Quadruplex DNA [13]) [µM] |
| --- | --- | --- | --- | --- | --- | --- | --- | --- | --- | --- | --- | --- | --- |
| CN(C)c1ccc(Nc2c3ccc(NC(=O)CCN4CCCC4)cc3nc3cc(NC(=O)CCN4CCCC4)ccc23)cc1 | 54.8 | 6.9 | Active | inactive | inactive | Active | inactive | inactive | inactive | 85 | inactive | Dose-Dependent Effect | – |
| CCC1=C(C)c2cc3[nH]c(cc4nc(cc5c(CC)c(C)c(cc1n2)n5C)C(C)=C4CCC(=O)O)c(CCC(=O)O)c3C | 64 | 16.1 | Active | inactive | inactive | Active | Active | Active | Active | 85 | inactive | – | 0.0053 |
| CN1/C(=C/c2cc[n+](C)c3ccccc23)Sc2ccccc21.Cc1ccc(S(=O)(=O)[O-])cc1 | 53.3 | 5.4 | Active | inactive | inactive | Active | Active | Active | Active | 85 | inactive | – | 0.167 |
| C[n+]1ccc(-c2c3nc(c(-c4cc[n+](C)cc4)c4ccc([nH]4)c(-c4cc[n+](C)cc4)c4nc(c(-c5cc[n+](C)cc5)c5ccc2[nH]5)C=C4)C=C3)cc1.Cc1ccc(S(=O)(=O)[O-])cc1.Cc1ccc(S(=O)(=O)[O-])cc1.Cc1ccc(S(=O)(=O)[O-])cc1.Cc1ccc(S(=O)(=O)[O-])cc1 | – | – | – | – | – | – | – | – | – | 85 | – | – | 0.148 |
| C[n+]1ccc(-c2c3nc(c(-c4cc[n+](C)cc4)c4ccc([nH]4)c(-c4cc[n+](C)cc4)c4ccc([nH]4)c(-c4cc[n+](C)cc4)c4nc2C=C4)C=C3)cc1 | 69.4 | 21.5 | Active | inactive | inactive | Active | Active | Active | inactive | – | inactive | Dose-Dependent Effect | – |
